Reference: publication PMC9699003, “Arene Variation of Highly Cytotoxic Tridentate Naphthoquinone-Based Ruthenium(II) Complexes and In-Depth In Vitro Studies” (Pharmaceutics, 2022)

Assays:
Type in all cases: cell-based, human
[1] = test system: A549 non-small cell lung cancer cells; experiment: MTT assay (cytotoxicity)
Experimental: (§1) CH1/PA-1 ovarian teratocarcinoma cells (provided by L. R. Kelland, CRC Centre for Cancer Therapeutics, Institute of Cancer Research, Sutton, UK; confirmed by STR profiling as PA-1 ovarian teratocarcinoma cells at Multiplexion, Heidelberg, Germany), SW480 colon carcinoma and A549 non-small cell lung cancer cells (both obtained from the American Type Culture Collection, Manassas, VA, USA) were grown as adherent cultures in 75 cm² culture flasks (CytoOne, Starlab, Hamburg, Germany) by using minimal essential medium (MEM) supplemented with 1 mM sodium pyruvate, 4 mM L-glutamine, 1% (v/v) nonessential amino acids from 100-fold stock (all purchased from Sigma-Aldrich) and 10% heat-inactivated fetal bovine serum (BioWest, Nuaillé, France). Cells were maintained under standard culture conditions with 5% CO2 at 37 °C in a humidified atmosphere.
(§2) The 3-(4,5-dimethylthiazol-2-yl)-2,5-diphenyl-2H-tetrazolium bromide (MTT, Acros Organics, Geel, Belgium) assay was used to detect the cytotoxicity of the compounds after 24 h and 96 h incubation. In brief, cells were harvested from culture flasks and the following cell numbers (each in 100 µL) were seeded into 96-well culture plates (CytoOne, tissue culture treated, Starlab, Hamburg, Germany) for 24 h incubation: 1 × 10^4 (CH1/PA-1), 1 × 10^4 (SW480) and 1.5 × 10^4 (A549) cells per well; and for 96 h incubation: 1 × 10^3 (CH1/PA-1), 2 × 10^3 (SW480) and 3 × 10^3 (A549) cells per well. After 24 h, cells resuming their exponential growth rate were treated with test compounds at nine concentrations obtained by serial two-fold dilution. Stock solutions were prepared in DMSO (20 mM or 40 mM) and diluted in supplemented MEM. An amount of 100 µL of each concentration was added to the plates in triplicates and cells were exposed for 24 or 96 h. Afterward, the medium was replaced with 100 µL of MTT solution (5 mg/mL) in phosphate-buffered saline (PBS, Sigma-Aldrich), diluted 1:7 in RPMI 1640 medium (supplemented with 4 mM L-glutamine and 10% heat-inactivated FBS). Upon cell-viability-dependent conversion of the yellow, water-soluble tetrazolium salt into purple formazan products for 4 h, the crystals were dissolved in 150 µL DMSO. The absorbance of the resulting solutions, which is directly proportional to the number of viable cells, was measured at 550 nm (and at 690 nm as a reference) with a microplate reader (ELx808, BioTek, Winoosky, VT, USA) and Gen5TM 3.08 software (BioTek). Blank-corrected optical densities were subjected to graphical evaluation and interpolation of IC50 values. At least three biologically and technically independent experiments were performed.

[2] = test system: SW480 colon carcinoma cells; experiment: MTT assay (cytotoxicity)
Experimental: as §1, §2

SW480 cells [3] = experiment: Cellular ruthenium accumulation (ICP-MS); conditions: SW480, 2 h incubation, 37 °C
Experimental: SW480 cells were seeded at densities of 1.8 × 10^5 cells/well in 12-well plates (CytoOne, tissue culture treated) in 1 mL of supplemented MEM per well. (As CH1/PA-1 cells tend to detach during the required washing steps, cellular accumulation studies were performed only in SW480 cells). After 24 h, compounds dissolved in DMSO and diluted in MEM were added to the cells to final concentrations of 2 µM and 5 µM, and cells were incubated at 37 °C for 2 h. During incubation, the cell number was determined from three control wells of a plate seeded in parallel to the treatment plates. After the 2 h incubation, the medium was removed and all wells were washed with 3 × 1 mL PBS, and cells were lysed by adding 400 µL HNO3 per well for 1 h at room temperature. An amount of 300 µL of each lysate was added to 7.7 mL MilliQ water to get a total volume of 8 mL, and determination of the ruthenium content was carried out by ICP-MS. The measured amount of accumulated metal was normalized to the cell number and results were given in fg [Ru]/cell from at least three independent experiments. An Agilent 7800 ICP-MS instrument (Agilent Technologies, Tokyo, Japan) equipped with an Agilent SPS 4 autosampler (Agilent Technologies, Tokyo, Japan) was used to determine the ruthenium content. The ICP-MS parameters were tuned on a daily base to achieve high sensitivity. The ICP-MS was equipped with a MicroMist nebulizer with a sample uptake rate of ∼0.2 mL/min and standard nickel cones. The Agilent MassHunter software package (Workstation Software, Version C.01.04, 2018) was used for data evaluation. The instrumental parameters can be found in the supplementary information (Table S9).

CH1/PA-1 cells = experiment: Cell cycle distribution (PI staining, flow cytometry); conditions: CH1/PA-1, 24 h
Experimental: (§3) For the flow-cytometric determination of cell cycle distribution, CH1/PA-1 (8 × 10^4 cells/well) and SW480 (1.2 × 10^5 cells/well) cells were seeded into 12-well plates (CytoOne, tissue culture treated) in 1 mL supplemented MEM. In the first 24 h, the cells were allowed to settle and resume exponential growth. […] Gemcitabine (Sigma-Aldrich, 0.01 and 0.05 µM) and etoposide (Sigma-Aldrich, 0.25, 0.5 and 1 µM) were used as positive controls. After removal of the treatment medium, cells were washed with 1 mL PBS and trypsinized. Cells were collected in Eppendorf tubes and centrifuged (300 g, 3 min), and the supernatant was discarded. In the following step, cells were washed with 1 mL PBS and resuspended in 500 µL PI/HFS buffer (0.1% v/v Triton X-100, 0.1% w/v sodium citrate, in PBS) containing 25 µg/mL propidium iodide (PI, 1.0 mg/mL, Sigma-Aldrich). The staining was carried out overnight at 4 °C in the dark, and 200 µL of the cell suspension was loaded into 96-well round bottom plates (Falcon). Samples were measured with a Millipore Guava easyCyte 8HT flow cytometer with GuavaSoft™ software in the InCyte-modus, and 10,000 events/sample were detected. Data were analyzed with FlowJo software v 10.8.1 (Tree Star, Ashland, OR, USA) using Watson algorithm. Percentages of cells in the three cell cycle phases (G1/G0, S and G2/M) were calculated by integrating the resulting histograms of fluorescence signals (Figures S29 and S30). Experiments were repeated at least three times. For statistical evaluation, an unpaired t-test with Welch’s correction was performed by using GraphPad PRISM software.

SW480 cells [4] = experiment: as above; conditions: SW480, 24 h
Experimental: as §3

| Compound | IC50 ([1]; 24 h exposure) [µM] | IC50 ([2]; 24 h exposure) [µM] | Ru [102]/cell (cellular accumulation) (SW480 cells [3]; 2 µM) [fg] | Ru [102]/cell (cellular accumulation) (SW480 cells [3]; 5 µM) [fg] | Cells in G1/G0 phase (CH1/PA-1 cells; 100 µM) [%] | Cells in G2/M phase (CH1/PA-1 cells; 100 µM) [%] | Cells in S phase (CH1/PA-1 cells; 100 µM) [%] | Cells in G1/G0 phase (CH1/PA-1 cells; 150 µM) [%] | Cells in G2/M phase (CH1/PA-1 cells; 150 µM) [%] | Cells in S phase (CH1/PA-1 cells; 150 µM) [%] | IC50 ([1]; 96 h exposure) [µM] | IC50 ([2]; 96 h exposure) [µM] | Cells in G1/G0 phase (CH1/PA-1 cells; 200 µM) [%] | Cells in G2/M phase (CH1/PA-1 cells; 200 µM) [%] | Cells in S phase (CH1/PA-1 cells; 200 µM) [%] | Cells in G1/G0 phase (SW480 cells [4]; 5 µM) [%] | Cells in G2/M phase (SW480 cells [4]; 5 µM) [%] | Cells in S phase (SW480 cells [4]; 5 µM) [%] | other results |
| --- | --- | --- | --- | --- | --- | --- | --- | --- | --- | --- | --- | --- | --- | --- | --- | --- | --- | --- | --- |
| CC1=C([O-])C([O-])(n2cccn2)c2ccccc2C1=O.Cc1ccc(C(C)C)cc1.[Ru+2] (racemic) [Compound 1] | 3.8 ± 2.6 | 0.46 ± 0.14 | 97 ± 8 | 299 ± 54 | 19.8 ± 2.1 | 40.9 ± 4.0 | 45.8 ± 3.8 | 20.0 ± 1.3 | 31.0 ± 3.2 | 52.9 ± 1.9 |  |  |  |  |  |  |  |  | Cells in G1/G0 phase (CH1/PA-1 cells; 50 µM): 18.7 ± 1.7%; Cells in G2/M phase (CH1/PA-1 cells; 50 µM): 48.2 ± 5.5%; Cells in S phase (CH1/PA-1 cells; 50 µM): 39.2 ± 8.7%; Increase of S phase fraction relative to untreated control (CH1/PA-1 cells; concentration-dependent): up to 11%; Cells in G1/G0 phase (SW480 cells [4]; 0.039 µM): 23.8 ± 6.1%; Cells in G2/M phase (SW480 cells [4]; 0.039 µM): 37.2 ± 2.3%; Cells in S phase (SW480 cells [4]; 0.039 µM): 40.0 ± 2.1%; Cells in G1/G0 phase (SW480 cells [4]; 0.078 µM): 15.4 ± 1.2%; Cells in G2/M phase (SW480 cells [4]; 0.078 µM): 34.5 ± 2.1%; Cells in S phase (SW480 cells [4]; 0.078 µM): 53.4 ± 1.1%; Cells in G1/G0 phase (SW480 cells [4]; 0.16 µM): 25.0 ± 8.2%; Cells in G2/M phase (SW480 cells [4]; 0.16 µM): 22.5 ± 4.3%; Cells in S phase (SW480 cells [4]; 0.16 µM): 56.2 ± 8.4% |
| CC1=C([O-])C([O-])(n2cccn2)c2ccccc2C1=O.[Ru+2].c1ccccc1 (racemic) [Compound 2] | > 200 | 31 ± 3 | 4.5 ± 0.3 | 11 ± 2 | 29.9 ± 5.7 | 37.0 ± 6.1 | 39.9 ± 1.4 | 30.8 ± 7.1 | 38.3 ± 5.3 | 36.5 ± 3.3 | 141 ± 38 | 9.9 ± 2.5 | 29.7 ± 8.5 | 33.0 ± 3.0 | 39.1 ± 0.8 | 36.0 ± 6.7 | 32.0 ± 2.6 | 34.2 ± 3.8 | Cells in G1/G0 phase (SW480 cells [4]; 10 µM): 22.6 ± 5.7%; Cells in G2/M phase (SW480 cells [4]; 10 µM): 40.9 ± 4.2%; Cells in S phase (SW480 cells [4]; 10 µM): 38.8 ± 7.9%; Cells in G1/G0 phase (SW480 cells [4]; 20 µM): 22.3 ± 6.3%; Cells in G2/M phase (SW480 cells [4]; 20 µM): 27.9 ± 9.0%; Cells in S phase (SW480 cells [4]; 20 µM): 52.1 ± 3.3% |
| CC1=C([O-])C([O-])(n2cccn2)c2ccccc2C1=O.Cc1ccccc1.[Ru+2] (racemic) [Compound 3] | > 200 | 11 ± 2 | 15 ± 2 | 33 ± 10 | 25.8 ± 4.6 | 40.1 ± 2.7 | 38.6 ± 1.5 | 23.1 ±7.0 | 36.9 ± 1.5 | 40.8 ± 0.6 | 72 ± 12 | 2.8 ± 0.7 | 24.9 ± 5.8 | 40.3 ± 2.6 | 36.4 ± 1.2 | 20.4 ± 5.9 | 28.2 ± 5.6 | 54.1 ± 3.2 | Cells in G1/G0 phase (SW480 cells [4]; 1.25 µM): 28.4 ± 7.8%; Cells in G2/M phase (SW480 cells [4]; 1.25 µM): 35.1 ± 1.8%; Cells in S phase (SW480 cells [4]; 1.25 µM): 38.2 ± 7.1%; Cells in G1/G0 phase (SW480 cells [4]; 2.5 µM): 17.6 ± 4.5%; Cells in G2/M phase (SW480 cells [4]; 2.5 µM): 43.1 ± 7.6%; Cells in S phase (SW480 cells [4]; 2.5 µM): 43.3 ± 7.4% |
| CC1=C(O)C(=O)c2ccccc2C1=O [L, 2-Hydroxy-3-methyl-1,4-naphthoquinone] |  |  |  |  | 37.0 ± 0.3 | 22.9 ± 2.8 | 41.4 ± 2.4 | 40.8 ±1.7 | 19.3 ± 1.9 | 42.1 ± 2.7 |  |  | 47.2 ± 1.7 | 16.8 ± 8.9 | 37.6 ± 3.5 |  |  |  | IC50 ([1]; Homo sapiens, 24 h exposure): > 400 µM; IC50 ([2]; Homo sapiens, 24 h exposure): > 400 µM; Cells in G1/G0 phase (SW480 cells [4]; 50 µM): 47.4 ± 2.0%; Cells in G2/M phase (SW480 cells [4]; 50 µM): 14.5 ± 0.5%; Cells in S phase (SW480 cells [4]; 50 µM): 38.8 ± 1.7%; Cells in G1/G0 phase (SW480 cells [4]; 100 µM): 51.5 ± 5.0%; Cells in G2/M phase (SW480 cells [4]; 100 µM): 12.1 ± 0.4%; Cells in S phase (SW480 cells [4]; 100 µM): 35.9 ± 3.4%; Cells in G1/G0 phase (SW480 cells [4]; 150 µM): 52.0 ± 2.9%; Cells in G2/M phase (SW480 cells [4]; 150 µM): 11.3 ± 0.5%; Cells in S phase (SW480 cells [4]; 150 µM): 36.3 ± 2.2%; Cell cycle perturbation (in words) (SW480 cells [4]; tested concentrations): did not show any cell cycle perturbation |
